Experimental data from ChEMBL document CHEMBL5154901, “Development of Predictive Classification Models for Whole Cell Antimycobacterial Activity of Benzothiazinones” (J Med Chem, 2022).
Values after ≈ are worked out from the molar mass of the structure shown.

Experiments:
Mycolicibacterium vaccae = experiment: Antimycobacterial activity against Mycobacterium vaccae (JMRC:STI:10670) assessed as reduction in bacterial growth incubated for 42 hrs by serial dilution method; type: functional
[1] = Cytotoxicity against human HeLa cells assessed as reduction in cell viability incubated for 72 hrs by methylene blue staining based colorimetric assay; type: toxicity
[2] = Mycolicibacterium vaccae, JMRC:STI:10670, read-out: MIC

Row | SMILES | MIC (Mycolicibacterium vaccae; [2]) | CC50 at 72 h [1] | MIC (Mycolicibacterium vaccae)
1 | O=c1nc(N2CCC(c3ccc(CO)cc3)CC2)sc2c([N+](=O)[O-])cc(C(F)(F)F)cc12 | 0.0537 µM (≈ 0.025 µg/mL) | 19.6 µM | –
2 | CN1CCN(C(=O)CC(C)(C)CC(=O)N2CCN(c3nc(=O)c4cc(C(F)(F)F)cc([N+](=O)[O-])c4s3)CC2)CC1 | 5.34 µM (≈ 3.12 µg/mL) | – | –
3 | O=C(c1ccc2cn[nH]c2c1)N1CCN(c2nc(=O)c3cc(C(F)(F)F)cc([N+](=O)[O-])c3s2)CC1 | 3.09 µM (≈ 1.56 µg/mL) | – | –
4 | O=c1nc(N2CC[C@@](O)(c3ccc(F)cc3)[C@H](O)C2)sc2c([N+](=O)[O-])cc(C(F)(F)F)cc12 | 0.0515 µM (≈ 0.025 µg/mL) | 66.1 µM | –
5 | O=c1nc(N2CCn3cc(-c4ccc(F)cc4F)nc3C2)sc2c([N+](=O)[O-])cc(C(F)(F)F)cc12 | 0.196 µM (≈ 0.0998 µg/mL) | – | –
6 | O=c1nc(N2CC[C@](O)(COc3ccc(F)cc3)[C@@H](O)C2)sc2c([N+](=O)[O-])cc(C(F)(F)F)cc12 | 0.0243 µM (≈ 0.0125 µg/mL) | 34.3 µM | –
7 | O=c1nc(Nc2ccc(CCO)cc2)sc2c([N+](=O)[O-])cc(C(F)(F)F)cc12 | 15.2 µM (≈ 6.25 µg/mL) | – | –
8 | Cn1c(-c2ccccc2)nc2c1CN(c1nc(=O)c3cc(C(F)(F)F)cc([N+](=O)[O-])c3s1)C2 | – | – | 13 10^3nM
9 | O=c1nc(N2CCC(Oc3ccc(OC(F)(F)F)cc3)CC2)sc2c([N+](=O)[O-])cc(C(F)(F)F)cc12 | 0.0579 µM (≈ 0.031 µg/mL) | > 93 µM | –
10 | CN(CCCCCCO)c1nc(=O)c2cc(C(F)(F)F)cc([N+](=O)[O-])c2s1 | 0.0308 µM (≈ 0.0125 µg/mL) | 101 µM | –
11 | O=c1nc(N2CC[C@@H](c3ccccc3)[C@H](O)C2)sc2c([N+](=O)[O-])cc(C(F)(F)F)cc12 | 0.0277 µM (≈ 0.0125 µg/mL) | > 93 µM | –
12 | CN(CCO)c1nc(=O)c2cc(C(F)(F)F)cc([N+](=O)[O-])c2s1 | 0.0716 µM (≈ 0.025 µg/mL) | 80.2 µM | –
13 | CN1CCN(C(=O)CCCC(=O)N2CCN(c3nc(=O)c4cc(C(F)(F)F)cc([N+](=O)[O-])c4s3)CC2)CC1 | 11.2 µM (≈ 6.23 µg/mL) | – | –
14 | O=c1nc(N2CCn3cc(-c4ccc(OC(F)(F)F)cc4)nc3C2)sc2c([N+](=O)[O-])cc(C(F)(F)F)cc12 | 1.4 µM (≈ 0.78 µg/mL) | – | –
15 | O=C(O)[C@@H]1CN(c2nc(=O)c3cc(C(F)(F)F)cc([N+](=O)[O-])c3s2)Cc2ccccc21 | – | – | 3.5 10^3nM
16 | O=c1nc(N2CCc3[nH]nc(-c4ccccc4)c3C2)sc2c([N+](=O)[O-])cc(C(F)(F)F)cc12 | – | – | 6.6 10^3nM
17 | CC(C)n1c2c([n+](C)c1-c1ccccc1)CN(c1nc(=O)c3cc(C(F)(F)F)cc([N+](=O)[O-])c3s1)C2 | 0.0477 µM | – | –
18 | O=c1nc(N2CCN(c3ccc(O)cc3)CC2)sc2c([N+](=O)[O-])cc(C(F)(F)F)cc12 | 1.72 µM (≈ 0.778 µg/mL) | – | –
19 | O=c1nc(N2CC[C@@](O)(COc3ccc(F)cc3)[C@H](O)C2)sc2c([N+](=O)[O-])cc(C(F)(F)F)cc12 | 0.0485 µM (≈ 0.025 µg/mL) | 18.4 µM | –
20 | O=c1nc(N2CCC(CCO)CC2)sc2c([N+](=O)[O-])cc(C(F)(F)F)cc12 | 0.992 µM (≈ 0.4 µg/mL) | 91.5 µM | –
21 | CC(=O)c1ccc(N2CCN(c3nc(=O)c4cc(C(F)(F)F)cc([N+](=O)[O-])c4s3)CC2)cc1 | 0.13 µM (≈ 0.0622 µg/mL) | > 105 µM | –
22 | O=c1nc(N2CCNCC2)sc2c([N+](=O)[O-])cc(C(F)(F)F)cc12 | 17.3 µM (≈ 6.23 µg/mL) | – | –

Row | SMILES | MIC (Mycolicibacterium vaccae; [2]) | CC50 at 72 h [1] | MIC (Mycolicibacterium vaccae)
23 | CN(c1ccc(O)cc1)c1nc(=O)c2cc(C(F)(F)F)cc([N+](=O)[O-])c2s1 | 126 µM (≈ 50.1 µg/mL) | – | –
24 | CN(c1ccc(CN)cc1)c1nc(=O)c2cc(C(F)(F)F)cc([N+](=O)[O-])c2s1 | 3.8 µM (≈ 1.56 µg/mL) | – | –
25 | CC(C)n1c(-c2ccccc2)nc2c1CN(c1nc(=O)c3cc(C(F)(F)F)cc([N+](=O)[O-])c3s1)C2 | 0.798 µM (≈ 0.4 µg/mL) | – | –
26 | CN1CCN(C(=O)C(F)(F)C(F)(F)C(=O)N2CCN(c3nc(=O)c4cc(C(F)(F)F)cc([N+](=O)[O-])c4s3)CC2)CC1 | 0.0407 µM (≈ 0.025 µg/mL) | > 81.4 µM | –
27 | O=c1nc(N2CCn3nnc(-c4ccccc4)c3C2)sc2c([N+](=O)[O-])cc(C(F)(F)F)cc12 | 1.64 µM (≈ 0.778 µg/mL) | – | –
28 | CN1CCC(CCCC2CCN(c3nc(=O)c4cc(C(F)(F)F)cc([N+](=O)[O-])c4s3)CC2)CC1 | 0.124 µM (≈ 0.0618 µg/mL) | 20.1 µM | –
29 | COc1cc(OC)cc(N2CCN(c3nc(=O)c4cc(C(F)(F)F)cc([N+](=O)[O-])c4s3)CC2)c1 | 0.0624 µM (≈ 0.031 µg/mL) | > 101 µM | –
30 | O=c1nc(N2CCN(CC(F)(F)c3ccc(F)cc3)CC2)sc2c([N+](=O)[O-])cc(C(F)(F)F)cc12 | 0.0154 µM (≈ 0.00798 µg/mL) | 87.2 µM | –
31 | O=c1nc(N2CC[C@](O)(c3ccccc3)[C@@H](O)C2)sc2c([N+](=O)[O-])cc(C(F)(F)F)cc12 | 0.0267 µM (≈ 0.0125 µg/mL) | 73 µM | –
32 | O=C(c1ccc2[nH]ncc2c1)N1CCN(c2nc(=O)c3cc(C(F)(F)F)cc([N+](=O)[O-])c3s2)CC1 | 6.19 µM (≈ 3.12 µg/mL) | – | –
33 | O=c1nc(N2CCn3cc(-c4ccccc4)nc3C2)sc2c([N+](=O)[O-])cc(C(F)(F)F)cc12 | – | – | 53 10^3nM
34 | CN(c1ccc(CO)cc1)c1nc(=O)c2cc(C(F)(F)F)cc([N+](=O)[O-])c2s1 | 30.4 µM (≈ 12.5 µg/mL) | – | –
35 | O=C(O)c1ccccc1N1CCN(c2nc(=O)c3cc(C(F)(F)F)cc([N+](=O)[O-])c3s2)CC1 | 6.49 µM (≈ 3.12 µg/mL) | – | –
36 | O=c1nc(Nc2ccc3[nH]ncc3c2)sc2c([N+](=O)[O-])cc(C(F)(F)F)cc12 | 61.4 µM (≈ 25 µg/mL) | – | –
37 | O=c1nc(Nc2ccccc2)sc2c([N+](=O)[O-])cc(C(F)(F)F)cc12 | 68.1 µM (≈ 25 µg/mL) | – | –
38 | O=c1nc(N2CC[C@](O)(c3ccc(F)cc3)[C@@H](O)C2)sc2c([N+](=O)[O-])cc(C(F)(F)F)cc12 | 0.0515 µM (≈ 0.025 µg/mL) | 73.3 µM | –
39 | O=c1nc(N2CCN(Cc3ccncc3)CC2)sc2c([N+](=O)[O-])cc(C(F)(F)F)cc12 | 0.0687 µM (≈ 0.031 µg/mL) | > 111 µM | –
40 | O=c1nc(N2CC[C@@H](c3ccc(F)cc3)[C@H](CO)C2)sc2c([N+](=O)[O-])cc(C(F)(F)F)cc12 | 0.0128 µM (≈ 0.00619 µg/mL) | 35.8 µM | –
41 | O=c1nc(N2Cc3[nH]nc(-c4ccccc4)c3C2)sc2c([N+](=O)[O-])cc(C(F)(F)F)cc12 | 13.6 µM (≈ 6.25 µg/mL) | – | –
42 | O=c1nc(N2CC[C@@H](c3ccc(F)cc3)[C@H](O)C2)sc2c([N+](=O)[O-])cc(C(F)(F)F)cc12 | 0.0132 µM (≈ 0.0062 µg/mL) | 68.4 µM | –
43 | CN(c1ccc(CCO)cc1)c1nc(=O)c2cc(C(F)(F)F)cc([N+](=O)[O-])c2s1 | 7.33 µM (≈ 3.12 µg/mL) | – | –
44 | O=c1nc(N2CCC(O)CC2)sc2c([N+](=O)[O-])cc(C(F)(F)F)cc12 | – | – | 1.1 10^3nM

Row | SMILES | MIC (Mycolicibacterium vaccae; [2]) | CC50 at 72 h [1] | MIC (Mycolicibacterium vaccae)
45 | O=c1nc(N2CCC(CO)CC2)sc2c([N+](=O)[O-])cc(C(F)(F)F)cc12 | 2 µM (≈ 0.779 µg/mL) | – | –
46 | CN1CCN(c2nc(=O)c3cc(C(F)(F)F)cc([N+](=O)[O-])c3s2)CC1 | 0.267 µM (≈ 0.0999 µg/mL) | – | –
47 | O=C(c1cccc2[nH]ncc12)N1CCN(c2nc(=O)c3cc(C(F)(F)F)cc([N+](=O)[O-])c3s2)CC1 | 1.55 µM (≈ 0.782 µg/mL) | – | –
48 | O=C(CN1CCN(c2nc(=O)c3cc(C(F)(F)F)cc([N+](=O)[O-])c3s2)CC1)N1CCOCC1 | 0.205 µM (≈ 0.0999 µg/mL) | – | –
49 | O=c1nc(N2CCn3cc(-c4ccc(F)c(F)c4)nc3C2)sc2c([N+](=O)[O-])cc(C(F)(F)F)cc12 | 0.0491 µM (≈ 0.025 µg/mL) | – | –
50 | Cn1c(-c2ccccc2)nc2c1CCN(c1nc(=O)c3cc(C(F)(F)F)cc([N+](=O)[O-])c3s1)C2 | 0.41 µM (≈ 0.2 µg/mL) | – | –
51 | O=c1nc(N2CCc3[nH]c(-c4ccccc4)nc3C2)sc2c([N+](=O)[O-])cc(C(F)(F)F)cc12 | 52.8 µM (≈ 25 µg/mL) | – | –
52 | CN1CCN(C(=O)CCC(=O)N2CCN(c3nc(=O)c4cc(C(F)(F)F)cc([N+](=O)[O-])c4s3)CC2)CC1 | – | – | 5.8 10^3nM
53 | O=c1nc(N2CCn3c(-c4ccccc4)cnc3C2)sc2c([N+](=O)[O-])cc(C(F)(F)F)cc12 | 0.0131 µM (≈ 0.0062 µg/mL) | – | –
54 | O=c1nc(N2CCn3c(nnc3-c3ccccc3)C2)sc2c([N+](=O)[O-])cc(C(F)(F)F)cc12 | 0.0527 µM (≈ 0.025 µg/mL) | – | –
55 | O=c1nc(N2CCN(CCCC3(c4ccc(F)cc4)OCCO3)CC2)sc2c([N+](=O)[O-])cc(C(F)(F)F)cc12 | 0.141 µM (≈ 0.0802 µg/mL) | – | –
56 | O=c1nc(N2CCn3nncc3C2)sc2c([N+](=O)[O-])cc(C(F)(F)F)cc12 | 31.4 µM (≈ 12.5 µg/mL) | – | –
57 | CN1CCC(CCC2CCN(c3nc(=O)c4cc(C(F)(F)F)cc([N+](=O)[O-])c4s3)CC2)CC1 | 0.206 µM (≈ 0.0998 µg/mL) | – | –
58 | CN(c1ccc2[nH]ncc2c1)c1nc(=O)c2cc(C(F)(F)F)cc([N+](=O)[O-])c2s1 | 0.949 µM (≈ 0.4 µg/mL) | – | –
59 | O=c1nc(N2CCn3nc(-c4ccccc4)nc3C2)sc2c([N+](=O)[O-])cc(C(F)(F)F)cc12 | 105 µM (≈ 49.8 µg/mL) | – | –
60 | O=c1nc(Nc2ccc(CO)cc2)sc2c([N+](=O)[O-])cc(C(F)(F)F)cc12 | – | – | 16 10^3nM
61 | O=c1nc(N2CCN(CCc3ccccc3)CC2)sc2c([N+](=O)[O-])cc(C(F)(F)F)cc12 | 0.0172 µM (≈ 0.00799 µg/mL) | > 108 µM | –
62 | CCn1c(-c2ccccc2)nc2c1CN(c1nc(=O)c3cc(C(F)(F)F)cc([N+](=O)[O-])c3s1)C2 | 3.2 µM (≈ 1.56 µg/mL) | – | –
63 | CN1CCC(OC2CCN(c3nc(=O)c4cc(C(F)(F)F)cc([N+](=O)[O-])c4s3)CC2)CC1 | – | – | 6.6 10^3nM
64 | Cc1nnc2n1CCN(c1nc(=O)c3cc(C(F)(F)F)cc([N+](=O)[O-])c3s1)C2 | 3.78 µM (≈ 1.56 µg/mL) | – | –
65 | O=c1nc(N2CCc3nc(-c4ccccc4)ncc3C2)sc2c([N+](=O)[O-])cc(C(F)(F)F)cc12 | – | – | 26 10^3nM
66 | O=c1nc(N2CC[C@@](O)(c3ccccc3)[C@H](O)C2)sc2c([N+](=O)[O-])cc(C(F)(F)F)cc12 | 0.0535 µM (≈ 0.025 µg/mL) | 68.5 µM | –
